Tested on: SHP-77
Assay: SHP-77 cancer cell proliferation inhibition (Cell Titer-Glo)
Assay type: cell-based
Conditions: Homo sapiens, SHP77, SHP-77 small cell lung cancer cell line, 72 hours
Summary of the method: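 GI50 comes from CellTiter-Glo luminescence, read 10 min after reagent addition at RT, following 72 h compound treatment. Eleven concentrations were used (⅓ steps, highest 10 μM final) on 2000 cells/well. MDA-MB-231 and MDA-MB-468 were grown in DMEM, SHP-77 in RPMI.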

Row | SMILES | GI50
1 | COc1cc(S(=O)(=O)N2CCOCC2)ccc1Nc1cc(C2CC2)c2c(C#N)c[nH]c2n1 [Example 227, 4-cyclopropyl-6-((2-methoxy-4-(morpholinosulfonyl)phenyl)amino)-1H-pyrrolo[2,3-b]pyridine-3-carbonitrile] | 301 to 1000 nM
2 | CCNc1cc(Nc2ccc(S(=O)(=O)N3CCC(N4CCOCC4)CC3)c3c2OCCO3)nc2[nH]cc(C(F)(F)F)c12 [Example 96, N^4-ethyl-N^6-(8-((4-morpholonopiperidin-1-yl)sulfonyl)-2,3-dihydrobenzo [b] [1,4]dioxin-5-yl)-3-(trifluoromethyl)-1H-pyrrolo[2,3-b]pyridine-4,6-diamine] | 301 to 1000 nM
3 | CCNc1cc(Nc2cc(F)c(S(=O)(=O)N3CCC(N4CCOCC4)CC3)cc2OC)nc2[nH]cc(C(F)(F)F)c12 [Example 266, N^4-ethyl-N^6-(5-fluoro-2-methoxy-4-((4-morpholinopiperidin-1-yl)sulfonyl)phenyl)-3-(trifluoromethyl)-1H-pyrrolo[2,3-b]pyridine-4,6-diamine] | 301 to 1000 nM

Tested on: TNF-α
Assay: TNF-α secretion inhibition in LPS-treated THP-1 cells (ELISA)
Assay type: cell-based
Conditions: Homo sapiens, compound 0.5 μM, LPS 500 ng/ml, 24 hours, read-out: THP-1/TNF-a (% inhib)
Description: In order to evaluate the cytokine secretion inhibitory efficacy of mononuclear cells, THP-1 cells (ATCC, #TIB-202) as a human-derived monocyte cell line were cultured in RPMI-1640 (Hyclone, SH30027.01) media in which 10% fetal bovine serum (Hyclone, SH30084.03), 1% penicillin streptomycin (Welgene, LS202-02) and 50 μM 2-Mercaptoethanol (Gibco, #21985023) were contained. In the test, 1.5-2×10^5 cells/250 μl per each well were dispensed in a 48-well plate (SPL, #30048) and incubated in an incubator at 37° C. and 5% CO2 for 16 hours, and then the compounds were diluted in DMSO so that the final concentration was 0.5 μM. It was treated with Lipopolysaccharides (LPS) (sigma, #L6529) […]. After treatment with the compound, the LPS was treated so that the final concentration was 500 ng/ml, and then the cell culture fluid was collected after culturing for 24 hours, and the degrees of the cytokines IL-6 (R&D system, #D6050) and TNF-α (R&D system, #DTA00D) contained in the culture fluid were collected using each ELISA kit. After performing the experiment according to the manufacturer's instructions, the absorbance at 450 nm was measured and analyzed using a microplate reader.

Row | SMILES | inhibition at 0.5 µM
4 | CCNc1cc(Nc2ccc(C(=O)N3CCC(N4CCOCC4)CC3)c3c2OCC3)nc2[nH]cc(C(F)(F)F)c12 [Example 90, (7-((4-(ethylamino)-3-(trifluoromethyl)-1H-pyrrolo[2,3-b]pyridin-6-yl)amino)-2,3-dihydrobenzofuran-4-yl)(4-morpholinopiperidin-1-yl)methanone] | 12.4%
5 | CNc1cc(Nc2ccc(C(=O)N3CC[C@@H](N4CCOCC4)C3)c3c2OCC3)nc2[nH]cc(C(F)(F)F)c12 [Example 214, (R)-(7-((4-(methylamino)-3-(trifluoromethyl)-1H-pyrrolo[2,3-b]pyridin-6-yl)amino)-2,3-dihydrobenzofuran-4-yl)(3-morpholinopyrrolidin-1-yl)methanone] | 12%
6 | CCNc1cc(Nc2ccc(P3(=O)CCN(C4CCOCC4)CC3)cc2OC)nc2[nH]cc(C(F)(F)F)c12 [Example 94, 4-(4-((4-(ethylamino)-3-(trifluoromethyl)-1H-pyrrolo[2,3-b]pyridin-6-yl)amino)-3-methoxyphenyl)-1-(tetrahydro-2H-pyran-4-yl)-1,4-azaphosphinane 4-oxide] | 6.6%
7 | CCNc1cc(Nc2ccc(C(=O)N3CCC(N4C[C@@H]5C[C@H]4CO5)CC3)c3c2OCC3)nc2[nH]cc(C(F)(F)F)c12 [Example 105, (4-((1S,4S)-2-oxa-5-azabicyclo[2.2.1]heptan-5-yl)piperidin-1-yl)(7-((4-(ethylamino)-3-(trifluoromethyl)-1H-pyrrolo[2,3-b]pyridin-6-yl)amino)-2,3-dihydrobenzofuran-4-yl)methanone] | 1.7%
8 | CCNc1cc(Nc2ccc(C(=O)N3CCN(C4COC4)CC3)c3c2OCCO3)nc2[nH]cc(C(F)(F)F)c12 [Example 173, (8-((4-(ethylamino)-3-(trifluoromethyl)-1H-pyrrolo[2,3-b]pyridin-6-yl)amino)-2,3-dihydrobenzo[b] [1,4]dioxin-5-yl)(4-(oxetan-3-yl)piperazin-1-yl)methanone] | 5.9%
9 | CNc1cc(Nc2ccc(C(=O)N3CCC(N4CCOCC4)CC3)c3c2OCC3)nc2[nH]cc(C(F)(F)F)c12 [Example 234, (7-((4-(methylamino)-3-(trifluoromethyl)-1H-pyrrolo[2,3-b]pyridin-6-yl)amino)-2,3-dihydrobenzofuran-4-yl)(4-morpholinopiperidin-1-yl)methanone] | 12.4%
10 | CCNc1cc(Nc2ccc(C(=O)N3CCN(C4COC4)CC3)c3c2OCC3)nc2[nH]cc(C(F)(F)F)c12 [Example 248, (7-((4-(ethylamino)-3-(trifluoromethyl)-1H-pyrrolo[2,3-b]pyridin-6-yl)amino)-2,3-dihydrobenzofuran-4-yl)(4-(oxetan-3-yl)piperazin-1-yl)methanone] | 9.2%

Reference: patent publication US12240844B2 (Voronoi, Inc., priority 2019, dated 2025)
